# Measured values from patent publication US20060100146A1, “AWAT-related methods and articles” (priority 2004, published 2006).
# Several values for one entry are separate records, joined by “and”; a condition that tells them apart may be missing. Equal entries are not always repeated.
# T1: human AWAT1 (DGA2) (Homo sapiens, UniProt Q58HT5)
# T1 construct: The full length DGA2 was sub cloned into the EcoRI and NotI sites of the pRS423-GP vector; made in house; host or cells: Saccharomyces cerevisiae SCY2056 (dga1Δ lro1Δ are2), galactose-inducible pRS423-GP vector; microsomes used
# T1 sequence (Q58HT5 1-328): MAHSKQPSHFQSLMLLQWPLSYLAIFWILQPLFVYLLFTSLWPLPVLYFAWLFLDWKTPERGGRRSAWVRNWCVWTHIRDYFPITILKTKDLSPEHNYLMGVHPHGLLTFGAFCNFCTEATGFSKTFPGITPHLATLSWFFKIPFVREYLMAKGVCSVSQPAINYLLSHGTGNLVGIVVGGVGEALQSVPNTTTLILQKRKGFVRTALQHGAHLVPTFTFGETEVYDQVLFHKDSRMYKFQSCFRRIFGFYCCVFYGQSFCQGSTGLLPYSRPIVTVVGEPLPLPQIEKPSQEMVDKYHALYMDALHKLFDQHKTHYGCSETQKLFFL
# T2: human AWAT2 (hDC4) (Homo sapiens, UniProt Q6E213)
# T2 construct: The full-length hDC4 was then sub cloned into the EcoRI site of the pRS423-GP vector; made in house; host or cells: Saccharomyces cerevisiae SCY2056 (dga1Δ lro1Δ are2), galactose-inducible pRS423-GP vector; microsomes used
# T2 sequence (Q6E213 1-333): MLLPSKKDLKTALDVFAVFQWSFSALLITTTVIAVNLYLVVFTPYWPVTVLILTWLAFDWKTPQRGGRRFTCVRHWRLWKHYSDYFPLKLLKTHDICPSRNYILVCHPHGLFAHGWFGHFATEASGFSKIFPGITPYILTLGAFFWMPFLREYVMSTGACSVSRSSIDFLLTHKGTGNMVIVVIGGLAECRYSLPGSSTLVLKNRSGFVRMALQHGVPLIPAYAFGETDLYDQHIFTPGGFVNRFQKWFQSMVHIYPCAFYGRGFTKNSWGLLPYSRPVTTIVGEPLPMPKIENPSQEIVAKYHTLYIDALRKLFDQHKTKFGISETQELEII
# B1: DGA2: acyl-CoA wax alcohol acyltransferase 1, synonym diacyl-glycerol acyltransferase 2; human enzyme expressed in yeast microsomes (protein, UniProt Q58HT5 1-328, looked up)
# Acyl-CoA wax alcohol …: T1 sequence (Q58HT5 1-328)
# modifications: yeast microsomes
# notes: acyl-CoA wax alcohol acyltransferase 1, synonym diacyl-glycerol acyltransferase 2; human enzyme expressed in yeast microsomes
# B2: hDC4: acyl-CoA wax alcohol acyltransferase 2, synonym human DGAT candidate gene 4; human enzyme expressed in yeast microsomes (protein, UniProt Q6E213 1-333, looked up)
# Acyl-CoA wax alcohol …: T2 sequence (Q6E213 1-333)
# modifications: yeast microsomes
# notes: acyl-CoA wax alcohol acyltransferase 2, synonym human DGAT candidate gene 4; human enzyme expressed in yeast microsomes
# B3: DGAT2: human diacylglycerol acyltransferase 2, expressed in TG-null yeast; microsomes assayed (protein, UniProt Q96PD7 1-388, looked up)
# Diacylglycerol …: MKTLIAAYSGVLRGERQAEADRSQRSHGGPALSREGSGRWGTGSSILSALQDLFSVTWLNRSKVEKQLQVISVLQWVLSFLVLGVACSAILMYIFCTDCWLIAVLYFTWLVFDWNTPKKGGRRSQWVRNWAVWRYFRDYFPIQLVKTHNLLTTRNYIFGYHPHGIMGLGAFCNFSTEATEVSKKFPGIRPYLATLAGNFRMPVLREYLMSGGICPVSRDTIDYLLSKNGSGNAIIIVVGGAAESLSSMPGKNAVTLRNRKGFVKLALRHGADLVPIYSFGENEVYKQVIFEEGSWGRWVQKKFQKYIGFAPCIFHGRGLFSSDTWGLVPYSKPITTVVGEPITIPKLEHPTQQDIDLYHTMYMEALVKLFDKHKTKFGLPETEVLEVN
# modifications: yeast microsomes
# notes: human diacylglycerol acyltransferase 2, expressed in TG-null yeast; microsomes assayed
# Key:
# [1] = target: T1, human AWAT1 (DGA2); assay: In vitro AWAT substrate specificity assay, AWAT1 microsomes; format: biochemical; conditions: for Activity of AWAT1 (DGA2) towards various wax alcohols / Activity of AWAT1 (DGA2) towards various acyl-CoAs: 20 μg microsomes, wax ester formed, vector control removed, mean +/- Std. dev., triplicate; for Activity of AWAT1 (DGA2) towards various wax alcohols: [14C]oleoyl-CoA as acyl donor; for Activity of AWAT1 (DGA2) towards various acyl-CoAs: [14C]cetyl alcohol as acyl acceptor
# Protocol: (§1) Acyl-CoA wax alcohol acyltransferase (AWAT) assays were performed as above with the following exceptions: 200 μM cetyl alcohol (unlabeled or [^14C]-labeled 10,000 dpm/nmol) was substituted for DAG, oleoyloleate was used as carrier, and reactions were incubated for 20 min in a final volume of 250 μl. After separation by TLC, the spot corresponding to wax ester was cut out and counted. For alcohol and acyl-CoA substrate specificity studies, microsomal preparations from DGA2 (20 μg) and hDC4 (10 μg) were used. Kill reactions and vector controls were included for all experiments. The various wax alcohols and acyl-Co A's were substituted for cetyl alcohol or oleoyl Co A at the concentrations specified above. Activity is presented as pmol/min/mg protein.
# (§2) In vitro AWAT assays were performed using microsomal preparations from TG null yeast strains transformed with human AWAT1 (DGA2), AWAT2 (hDC4) or a vector control harboring no insert. AWAT1 (20 μg) and AWAT2 (10 μg) microsomes were assayed as described under Experimental Procedures. Activity is in pmol of wax ester formed per min/mg protein, expressed as a mean±Std. dev. from a representative experiment performed in triplicate. Vector control background has been removed. In vitro determination of alcohol and acyl-CoA substrate specificities were performed with [^14C]oleoyl-CoA and the indicated alcohols or [^14C]cetyl alcohol and the indicated acyl-CoA donors (Table 3A and 3B, respectively). Kill reactions were included for all experiments.
# [2] = target: T2, human AWAT2 (hDC4); assay: In vitro AWAT substrate specificity assay, AWAT2 microsomes; format: biochemical; conditions: for Activity of AWAT2 (hDC4) towards various wax alcohols / Activity of AWAT2 (hDC4) towards various acyl-CoAs: 10 μg microsomes, wax ester formed, vector control removed, mean +/- Std. dev., triplicate; for Activity of AWAT2 (hDC4) towards various wax alcohols: [14C]oleoyl-CoA as acyl donor; for Activity of AWAT2 (hDC4) towards various acyl-CoAs: [14C]cetyl alcohol as acyl acceptor
# Protocol: as §1, §2
# [3] = tested on: TAG formation from dioleoylglycerol and [14C]oleoyl-CoA; assay: In vitro DGAT (diacylglycerol esterification) assay in yeast microsomes; format: biochemical; conditions: microsomes from TG-null yeast expressing the human enzyme; dioleoylglycerol + [14C]oleoyl-CoA; TAG formed; vector control subtracted; mean +/- Std. dev., 3 replicate experiments
# Protocol: (§3) A dilute inoculation of each strain into 500 mL of SC-His+2% galactose+1% raffinose was grown overnight at 30° C. into log phase. Cells were washed and lysed, and microsomes were prepared from a 100,000 g spin, as previously described (39). Protein concentrations were determined (40) and diacylglycerol esterification assays were performed as described previously (17,19,41). In brief, microsomes (100 μg) were preincubated for 5 min at 37° in 100 mM TRIS, pH 7.5 containing 0.25 M sucrose, 1 mM EDTA, 10 mM MgCl2, 20 μM fatty acid free BSA, 160 μM dioleoylglycerol (in 5 μl acetone, final volume 200 μl). The reaction was initiated by the addition of [^14C]oleoyl-CoA (10-20,000 dpm/nmol, 40 μM) and stopped after 10 min by the addition of 4 ml of chloroform:methanol (2:1 v/v). Carrier TAG (10 μg) and internal standard ([^3H]triolein, 30,000 dpm) were added followed by 0.8 ml water to separate phases. The lower chloroform layer containing the lipids was removed, evaporated to dryness, resuspended in 50 μl chloroform and individual lipid classes separated on Varian chromatography paper using a hexane:diethyl ether:acetic acid (170:30:1 v/v) mobile phase. The spot corresponding to TG was cut out and counted.
# (§4) Microsomes from TG-null yeast strains transformed with human DGAT2, DGA2, hDC3, or hDC4 were incubated in the presence of dioleoylglycerol or cetyl alcohol and [^14C]oleoyl-CoA and assayed for esterification as described in Experimental Procedures. Data are expressed as pmol of neutral lipid (TAG or Wax ester) formed per min/mg protein as a mean±Std. dev. DGAT activities are from 3 replicate experiments and AWAT activities are from a representative experiment performed in triplicate. Background levels to the assay from strains transformed with vector control have been subtracted.
# [4] = tested on: wax ester formation from cetyl alcohol and oleoyl-CoA; assay: In vitro AWAT (acyl-CoA wax alcohol acyltransferase) assay in yeast microsomes; format: biochemical, human
# Protocol: as §3, §1, §4
# [5] = [14C]cetyl alcohol rather than radiolabeled oleoyl CoA as monitor of ester formation
# [6] = microsomes from TG-null yeast expressing the human enzyme, cetyl alcohol + [14C]oleoyl-CoA, wax ester formed, vector control subtracted, mean +/- Std. dev., triplicate
Molecule,Activity of AWAT1 (DGA2) towards various wax alcohols [1],Activity of AWAT2 (hDC4) towards various wax alcohols [2],Activity of AWAT1 (DGA2) towards various acyl-CoAs [1],Activity of AWAT2 (hDC4) towards various acyl-CoAs [2],other results
CCCCCCCC/C=C\CCCCCCCCO [Oleyl C-18:1],247 +/− 23 pmol/min/mg protein,892 +/− 106 pmol/min/mg protein,–,–,–
"CCCCCCCCCCCCCCCCCCCCO [Arachidyl C-20, arachidyl alcohol]",22 +/− 4 pmol/min/mg protein,27 +/− 4 pmol/min/mg protein,–,–,Utilization by AWAT1 relative to decyl alcohol ([1]; oleoyl CoA as acyl donor): about 5%
"CCCCCCCCCCO [Decyl C-10, decyl alcohol]",419 +/− 180 pmol/min/mg protein,−50 +/− 277 pmol/min/mg protein,–,–,AWAT2 activity using the alcohol (in words) ([2]; oleoyl CoA as acyl donor): no activity
CCCCCCCCCCCCCCCC(=O)SCCNC(=O)CCNC(=O)[C@H](O)C(C)(C)COP(=O)(O)OP(=O)(O)OC[C@H]1O[C@@H](n2cnc3c(N)ncnc32)[C@H](O)[C@@H]1OP(=O)(O)O [Palmitoyl C-16],–,–,390 +/− 121 pmol/min/mg protein,524 +/− 164 pmol/min/mg protein,–
"CCCCCCCC/C=C\CCCCCCCC(=O)SCCNC(=O)CCNC(=O)[C@H](O)C(C)(C)COP(=O)(O)OP(=O)(O)OC[C@H]1O[C@@H](n2cnc3c(N)ncnc32)[C@H](O)[C@@H]1OP(=O)(O)O [Oleoyl C-18:1, oleoyl CoA]",–,–,113 +/− 7 pmol/min/mg protein,1232 +/− 349 pmol/min/mg protein,Utilization by AWAT1 relative to stearoyl CoA (C18:0) ([1]; cetyl alcohol as acyl acceptor): 20%
"CCCCCCCCCCCCCCCCCC(=O)SCCNC(=O)CCNC(=O)[C@H](O)C(C)(C)COP(=O)(O)OP(=O)(O)OC[C@H]1O[C@@H](n2cnc3c(N)ncnc32)[C@H](O)[C@@H]1OP(=O)(O)O [Stearoyl C-18, stearoyl CoA]",–,–,656 +/− 39 pmol/min/mg protein,549 +/− 38 pmol/min/mg protein,–
CCCCCC/C=C\CCCCCCCCO [Palmitoleyl C-16:1],184 +/− 29 pmol/min/mg protein,582 +/− 117 pmol/min/mg protein,–,–,–
CCCCCCCCCCCCCCCCCCO [Stearyl C-18],27 +/− 5 pmol/min/mg protein,138 +/− 24 pmol/min/mg protein,–,–,–
"CCCCCCCCCCCCCCCCO [Cetyl (Palmityl) C-16, cetyl alcohol]",83 +/− 6 pmol/min/mg protein,665 +/− 54 pmol/min/mg protein,–,–,–
"CCCCCC/C=C\CCCCCCCC(=O)SCCNC(=O)CCNC(=O)[C@H](O)C(C)(C)COP(=O)(O)OP(=O)(O)OC[C@H]1O[C@@H](n2cnc3c(N)ncnc32)[C@H](O)[C@@H]1OP(=O)(O)O [Palmitoleoyl C-16:1, palmitoleoyl CoA]",–,–,−20 +/− 25 pmol/min/mg protein,1125 +/− 220 pmol/min/mg protein,AWAT1 activity using the acyl-CoA (in words) ([1]; cetyl alcohol as acyl acceptor): no activity
B1,–,–,–,–,"DGAT Activity [3]: 7.8 +/− 3.2 pmol/min/mg protein; AWAT Activity [4, 5]: 113 pmol/min/mg; AWAT Activity [4, 6]: 31.7 pmol/min/mg protein and 31.7 +/− 17.4 pmol/min/mg protein"
B2,–,–,–,–,"DGAT Activity [3]: 11.4 +/− 3.4 pmol/min/mg protein; AWAT Activity [4, 5]: 1232 pmol/min/mg; AWAT Activity [4, 6]: 1066 pmol/min/mg protein and 1066 +/− 18.6 pmol/min/mg protein"
B3,–,–,–,–,"DGAT Activity [3]: 65.4 pmol/min/mg protein and 65.4 +/− 3.4 pmol/min/mg protein; AWAT Activity [4, 6]: −11.5 +/− 1.3 pmol/min/mg protein"
